Data on six compounds can be found in paper PMC9579148 (European Journal of Medicinal Chemistry, 2022).

In series [1] the test system is SARS-CoV-2 RG2674 (South African). Briefly: Antiviral CPE reduction assay in Vero cells, RG2674. The series is classed as cell-based. Particulars: 100 CCID50, CPE, 5 days.
The subject of series [2] is Vero cells.
Series [3] is described as follows: Stability test in aqueous solution. Particulars: PBS pH 7.0, 25 °C and 37 °C, 3, 6, 8 and 24 h, HPLC. The series is classed as physicochemical.
Series [4] concerns the target SARS-CoV-2 M^pro (Severe acute respiratory syndrome coronavirus 2, UniProt P0DTD1). The series is classed as binding. Particulars: ITC.
In series [5] the test system is M^pro. Particulars: octapeptide progenitor, earlier work; cited from earlier work.
Series [6] relates to SARS-CoV-2. Particulars: read-out: anti-SARS-CoV-2 activity EC50; cited from earlier work.

Residues, ends and D or L forms follow the SMILES beside them. *: point of attachment. Octanoyl = CCCCCCCC(=O)*; Boc = CC(C)(C)OC(=O)* Where only a bound is given, the exact number is not on record here.

With `CC(=O)NCC(=O)N[C@@H](Cc1ccccc1)C(=O)N[C@H](C=O)Cc1c[nH]cn1` [compound 4, Ac-Gly-Phe-His-CHO] (Ac-Gly-Phe-His-aldehyde), in series [1], the “Antiviral activity (EC50) RG2674” value was “ineffective”. For the same compound, the “Cytotoxicity, Cell morphology (MCC)” value in series [2] is listed as ≥100 μM. For the same compound, the “Stability in aqueous solution” value in series [3] is “stable”. Besides, in series [4], the “Stoichiometry (N)” value was found to be 1.040 ± 0.012. AT1001: in series [5], the “enzymatic inhibition activity (partial inhibition)” value is recorded as “about 30%”. With `CCCCCCCC(=O)NCC(=O)N[C@@H](Cc1ccccc1)C(=O)N[C@H](C=O)Cc1c[nH]cn1` [compound 58, Octanoyl-Gly-Phe-His-CHO] (Octanoyl-Gly-Phe-His-aldehyde), the “Cytotoxicity, Cell morphology (MCC)” value in series [2] is ≥100 μM. For the same compound, the “Stoichiometry (N)” value in series [4] came out at 0.966 ± 0.013. Consider `Cc1cc(C(=O)N[C@@H](C)C(=O)N[C@H](C(=O)N[C@@H](CC(C)C)C(=O)N[C@H](/C=C/C(=O)OCc2ccccc2)C[C@@H]2CCNC2=O)C(C)C)no1` [N3, reference compound], for which, in series [6], the EC50 was 16.8 ± 1.7 µM.

Take Ac-GGVLVQPG-NH2 [peptide 2]: the EC50 in series [6] is 17.6 ± 2.4 µM. With `CC(C)(C)OC(=O)NCC(=O)N[C@@H](Cc1ccccc1)C(=O)N[C@H](C=O)Cc1c[nH]cn1` [compound 57, Boc-Gly-Phe-His-CHO] (Boc-Gly-Phe-His-aldehyde), the “Cytotoxicity, Cell morphology (MCC)” value in series [2] is on record as ≥100 μM. The “Stoichiometry (N)” value in series [4] is reported as 0.991 ± 0.015.

Usually EC50 stands for the midpoint of the concentration-response curve.
